Results on four compounds are retold here after patent publication US20240368120A1 (Terns Pharmaceuticals, Inc., priority 2023, published 2024).

Molecules are shown by their SMILES.

The target of data set [1] is T1, human GLP-1R receptor (Homo sapiens, UniProt P43220).
T1 construct: expressed in transfected cells
Description: GLP-1R low expression cell assay (cAMP TR-FRET, CHO-K1_hGLP-1Rlow_clone10 cells). The class given is cell-based. The settings on record: for EC50: cAMP TR-FRET, 30 min at 25° C.; for Emax: maximum activation relative to control GLP-1 peptide agonist. In a few lines: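 CHO-K1 cells stably expressing low surface human GLP-1R (clone10), 1,000 cells/well, exposed to 10-point 3-fold compound dilutions for 30 min at 25 °C. cAMP measured by TR-FRET (Eu-cAMP tracer/ULight-anti-cAMP, 15 min). EC50 from Hill fit of duplicate percent activation relative to a parallel GLP-1 control agonist.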

A short description of data set [2]: Rat pharmacokinetics, oral dosing. It counts as in vivo, Sprague-Dawley rats. The following applies: male, Sprague-Dawley, oral dosing at 3 mg/kg, plasma; for half-life: read-out: Rat T1/2.

T1 sequence (P43220 24-463): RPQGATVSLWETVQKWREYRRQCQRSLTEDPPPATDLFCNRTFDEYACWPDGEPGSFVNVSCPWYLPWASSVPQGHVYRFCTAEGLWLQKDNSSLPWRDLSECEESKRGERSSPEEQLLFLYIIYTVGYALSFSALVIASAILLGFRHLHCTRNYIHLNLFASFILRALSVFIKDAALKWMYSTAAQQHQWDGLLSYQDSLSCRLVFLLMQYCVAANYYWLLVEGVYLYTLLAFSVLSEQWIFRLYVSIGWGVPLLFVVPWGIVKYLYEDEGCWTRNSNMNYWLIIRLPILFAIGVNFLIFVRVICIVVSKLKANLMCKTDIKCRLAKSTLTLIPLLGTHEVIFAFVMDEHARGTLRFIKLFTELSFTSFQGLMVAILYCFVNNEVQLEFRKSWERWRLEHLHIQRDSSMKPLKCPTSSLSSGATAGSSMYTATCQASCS

For the compound `COc1cc(C(F)(F)F)ccc1COc1cccc(C2CCN(Cc3nc4c(OC)cc(C(=O)O)cc4n3C)CC2)n1` [Compound 306, 4-Methoxy-2-((4-(6-((2-methoxy-4-(trifluoromethyl)benzyl)oxy)pyridin-2-yl)piperidin-1-yl)methyl)-1-methyl-1H-benzo[d]imidazole-6-carboxylic acid], in data set [1], the concentration for a half-maximal effect (EC50) was < 10 nM and the maximum response (Emax) is > 85%. In addition, in data set [2], the AUC lay within 2500 to 10000 ng·h/mL, the peak concentration (Cmax) fell in the range of 2000 to 5000 ng/mL, the half-life was in the range of 90 to 150 min and the bioavailability was 50 to 85%.
With `Cn1c(CN2CCC(c3cccc(OCc4ccc(Cl)cc4F)n3)CC2)nc2c(O)cc(C(=O)O)cc21` [Compound 307, 2-((4-(6-((4-Chloro-2-fluorobenzyl)oxy)pyridin-2-yl)piperidin-1-yl)methyl)-4-hydroxy-1-methyl-1H-benzo[d]imidazole-6-carboxylic acid], in data set [1], the concentration for a half-maximal effect (EC50) fell in the range of 10 to 100 nM and the maximum response (Emax) is > 85%. Further, in data set [2], the area under the curve (AUC) is < 500 ng·h/mL, the Cmax was < 500 ng/mL, the half-life is ≥ 150 min and the bioavailability lay within 25 to 50%.
Turning to `COc1cc(C(=O)O)cc2c1nc(CN1CCC(c3cccc(OCc4ccc(C#N)cc4F)n3)CC1)n2C` [Compound 308, 2-((4-(6-((4-Cyano-2-fluorobenzyl)oxy)pyridin-2-yl)piperidin-1-yl)methyl)-4-methoxy-1-methyl-1H-benzo[d]imidazole-6-carboxylic acid], in data set [1], the EC50 is < 10 nM and the Emax was > 85%. For the same compound, in data set [2], the AUC lay in the range of 2500 to 10000 ng·h/mL, the maximum concentration (Cmax) is 1000 to 2000 ng/mL, the half-life lay within 90 to 150 min and the bioavailability was in the range of 50 to 85%.
For the compound `COCCOc1cc(C(=O)O)cc2c1nc(CN1CCC(c3cccc4c3O[C@@](C)(c3ccc(Cl)cn3)O4)CC1)n2C` [Compound 309, (S)-2-((4-(2-(5-Chloropyridin-2-yl)-2-methylbenzo[d][1,3]dioxol-4-yl)piperidin-1-yl)methyl)-4-(2-methoxyethoxy)-1-methyl-1H-benzo[d]imidazole-6-carboxylic acid], in data set [1], the maximum response (Emax) is > 85%. In data set [2], the AUC was < 500 ng·h/mL, the Cmax was < 500 ng/mL, the half-life was ≥ 150 min and the bioavailability was < 25%.
